Assay results: paper PMC11053681, “Gold(I) and Silver(I) Complexes Containing Hybrid Sulfonamide/Thiourea Ligands as Potential Leishmanicidal Agents” (Pharmaceutics, 2024)
Read-outs that look alike come from different tables or passages of the source.

Experiments:
Leishmania braziliensis = assay: Leishmanicidal activity against promastigotes (resazurin); assay type: cell-based; settings: for IC50: promastigote form, 24 h treatment, resazurin, read-out: IC50 L. braziliensis
Description: (§1) The Leishmania infantum and Leishmania braziliensis strains were maintained in Schneider medium supplemented with 20% of SFB (Schneider 20%), cultivated in […] bottles and stored at 28 °C in a BOD oven. For the assays, parasites at the 5th day stationary growth phase were used.
(§2) The promastigotes metacyclic form of Leishmania infantum and Leishmania braziliensis were first filtered with an insulin syringe to break up rosettes and, then, were isolated from the culture in the stationary phase by centrifugation of 400× g for 4 min at a temperature of 4 °C [53]. The supernatant was subjected to a new centrifugation, heavier, of 2000× g for 30 min, also at 4 °C. The supernatant was discarded and the cell pallet formed from this centrifugation was resuspended in 10 mL of 10% Schneider medium. The process ensured the removal of cellular debris and dead parasites, as well as possible crystals from the culture medium, so that the quality of the experiment was guaranteed. Then, the promastigotes were diluted to 1:10 in paraformaldehyde (PFA) for counting in a Neubauer Chamber, with the concentrations adjusted for each experiment.
(§3) An amount of 1 × 10^7 parasites per well was used. The parasites were plated in 96-well plates. Then, the compounds were added in triplicate, starting at a concentration of 500 µM, with serial dilutions being performed up to a concentration of 3.9 µM [53]. The treatment was carried out for 24 h and, after adding 5 µL of resazurin, the fluorescence was read using a Enspire model spectrofluorometer (Perkin-Elmer, Waltham, MA, USA).

Leishmania infantum = assay: as above; assay type: cell-based; settings: for IC50: promastigote form, 24 h treatment, resazurin, read-out: IC50 L. infantum
Description: as §1, §2, §3

Vero cells [1] = assay: Cytotoxicity assay on Vero cells (resazurin); assay type: cell-based, African green monkey; settings: 24 h treatment
Description: For the experiment, Vero cells (ATCC CRL-1587) were used in Roswell Parl Memorial Institute (RPMI) medium with 10% fetal bovine serum (FBS) (RPMI 10%) and 20 μg/mL of Gentamicin. They were cultivated in culture bottles of […] and kept in an oven at 37 °C with 5% carbon dioxide (CO2). When picked or used on the day of the experiment, the cells were detached from the wall of the bottles with saline and 1X trypsin/EDTA. To find out how many cells there were in the bottle, it was diluted in Turkey liquid and then we proceeded with the counting in the Neubauer Chamber to calculate the desired concentrations. The Vero cells were plated at […] cells per well, in 96-well plates, and kept in an incubator with 5% CO2 at 37 °C for 24 h. Then, the compounds were added in triplicate, starting at a concentration of 500 µM, with serial dilution being performed up to a concentration of 3.9 µM [54]. The treatment was carried out for 24 h, and, after adding 5 µL of resazurin, the fluorescence was read using a spectrofluorometer (EnSpire Perkin-Elmer, Waltham, MA, USA).

[2] = Solubility in organic solvents; assay type: physicochemical
Vero cells [3] = test system: Vero cells; set-up: method as in PMID 31152929; settings: value for the reference drug in Table 5; cited from earlier work

Solubility in solvents, in words [2] | Compound | IC50 (Leishmania braziliensis) | SI L. braziliensis (Leishmania braziliensis; selectivity index = CC50 (Vero) / IC50 (L. braziliensis promastigotes)) | IC50 (Leishmania infantum) | SI L. infantum (Leishmania infantum; selectivity index = CC50 (Vero) / IC50 (L. infantum promastigotes)) | CC50 (Vero cells [1]) | CC50 (Vero cells [3])
low solubility | Cc1ccc(S(=O)(=O)NNC(Nc2ccc(Cl)cc2)=[S][Au+][S]=C(NNS(=O)(=O)c2ccc(C)cc2)Nc2ccc(Cl)cc2)cc1.[Cl-] [Au4, [Au(HL4^ClPh)2]Cl] | 277.6 ± 0.163 µM | 0.12 | 38.18 ± 0.158 µM | 0.84 | 32 µM | 
 | Glucantime [reference compound] | 176 to 192 µM |  | 113 to 130 µM |  |  | 1630 µM
